In US20080234262A1 (Wyeth, priority 2007, published 2008):

How the values were obtained:
[1] = tested on: breast line MDA468; experiment: In vitro cell culture growth assay (MTS), MDA468; assay type: cell-based, human; conditions: Homo sapiens, 72 h, MDA468 cells, three days after drug treatment
Summary of the method: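 Cells were plated and, one day later, exposed to inhibitors for three days; viable cell density was then measured by metabolic conversion of MTS dye, read as absorbance at 490 nm. Growth is expressed as percent of vehicle-treated control cells on the same plate.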

[2] = tested on: prostate line LNCap; experiment: In vitro cell culture growth assay (MTS), LNCap; assay type: cell-based, human; conditions: Homo sapiens, LNCaP, 72 h, LNCap cells, three days after drug treatment
[3] = molecular target: PI3K (Homo sapiens, UniProt P42336); experiment: Fluorescence polarization assay for PI3K; assay type: biochemical; conditions: PI3Kα; read-out: PI3Kα IC50;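 also: PI3K kinase reaction on PIP2 with ATP, 30-60 min, product sensed by GST-GRP with red probe in fluorescence polarization (mP), controls without enzyme and at zero time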
Chain of PI3K (P42336 whole entry): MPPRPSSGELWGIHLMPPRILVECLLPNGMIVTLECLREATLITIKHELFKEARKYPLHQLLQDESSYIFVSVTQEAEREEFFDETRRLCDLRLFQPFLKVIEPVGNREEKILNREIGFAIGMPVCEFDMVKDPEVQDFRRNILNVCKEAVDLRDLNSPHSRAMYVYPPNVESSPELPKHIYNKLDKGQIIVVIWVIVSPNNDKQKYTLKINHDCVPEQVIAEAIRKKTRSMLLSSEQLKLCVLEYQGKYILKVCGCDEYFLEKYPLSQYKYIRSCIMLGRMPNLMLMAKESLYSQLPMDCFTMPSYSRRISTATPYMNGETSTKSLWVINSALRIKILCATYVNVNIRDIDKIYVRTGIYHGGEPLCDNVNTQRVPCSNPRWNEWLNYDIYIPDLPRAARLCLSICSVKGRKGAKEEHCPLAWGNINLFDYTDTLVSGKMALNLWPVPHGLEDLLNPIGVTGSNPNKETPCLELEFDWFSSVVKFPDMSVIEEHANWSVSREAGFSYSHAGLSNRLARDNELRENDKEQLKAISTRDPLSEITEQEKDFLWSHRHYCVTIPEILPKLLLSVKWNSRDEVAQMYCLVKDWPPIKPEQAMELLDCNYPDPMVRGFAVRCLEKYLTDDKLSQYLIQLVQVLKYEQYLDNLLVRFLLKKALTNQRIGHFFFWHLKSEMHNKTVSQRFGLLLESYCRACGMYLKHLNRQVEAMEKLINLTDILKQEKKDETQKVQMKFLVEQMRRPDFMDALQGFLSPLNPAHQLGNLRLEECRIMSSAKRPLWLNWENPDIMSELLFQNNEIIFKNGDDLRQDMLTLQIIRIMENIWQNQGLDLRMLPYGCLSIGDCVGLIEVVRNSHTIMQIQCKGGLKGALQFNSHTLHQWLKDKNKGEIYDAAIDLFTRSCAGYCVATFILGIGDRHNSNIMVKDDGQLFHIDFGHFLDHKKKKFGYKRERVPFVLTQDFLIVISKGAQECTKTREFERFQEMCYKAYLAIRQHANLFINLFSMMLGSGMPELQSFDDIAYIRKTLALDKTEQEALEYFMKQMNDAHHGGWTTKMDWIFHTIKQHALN
Chain of PI3K (P27986 whole entry partner): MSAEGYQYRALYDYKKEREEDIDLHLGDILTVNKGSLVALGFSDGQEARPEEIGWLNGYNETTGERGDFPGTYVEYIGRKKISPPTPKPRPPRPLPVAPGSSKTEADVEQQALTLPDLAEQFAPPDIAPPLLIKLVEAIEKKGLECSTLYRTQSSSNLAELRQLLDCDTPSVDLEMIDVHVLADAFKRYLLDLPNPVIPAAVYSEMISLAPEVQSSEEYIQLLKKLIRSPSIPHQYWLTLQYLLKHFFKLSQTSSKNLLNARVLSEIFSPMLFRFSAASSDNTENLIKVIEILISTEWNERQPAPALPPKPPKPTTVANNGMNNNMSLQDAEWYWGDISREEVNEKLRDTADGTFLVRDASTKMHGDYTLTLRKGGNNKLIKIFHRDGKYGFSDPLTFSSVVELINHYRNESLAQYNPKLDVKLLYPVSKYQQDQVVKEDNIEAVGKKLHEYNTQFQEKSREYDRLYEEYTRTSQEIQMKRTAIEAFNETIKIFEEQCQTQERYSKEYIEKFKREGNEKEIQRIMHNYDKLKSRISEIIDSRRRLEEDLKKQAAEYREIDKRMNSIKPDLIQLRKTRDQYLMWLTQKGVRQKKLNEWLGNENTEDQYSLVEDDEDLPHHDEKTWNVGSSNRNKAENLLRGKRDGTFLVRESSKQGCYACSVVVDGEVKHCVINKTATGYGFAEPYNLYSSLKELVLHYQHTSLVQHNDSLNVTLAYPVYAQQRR

Structure (SMILES)	IC50 [2] [nM]	IC50 [3] [nM]	IC50 [1] [µM]
C=CCNC(=O)Nc1ccc(-c2nc(N3CCOCC3)c3cnn(C4CCN(Cc5ccccc5)CC4)c3n2)cc1 [Compound 509, 1-allyl-3-{4-[1-(1-benzylpiperidin-4-yl)-4-morpholin-4-yl-1H-pyrazolo[3,4-d]pyrimidin-6-yl]phenyl}urea]	250	268	1.8
NCCNC(=O)Nc1ccc(-c2nc(N3CCOCC3)c3cnn(C4CCN(Cc5ccccc5)CC4)c3n2)cc1 [Compound 512, 1-(2-aminoethyl)-3-{4-[1-(1-benzylpiperidin-4-yl)-4-morpholin-4-yl-1H-pyrazolo[3,4-d]pyrimidin-6-yl]phenyl}urea]	2000	14	2.7
O=C(NCCCO)Nc1ccc(-c2nc(N3CCOCC3)c3cnn(C4CCN(Cc5ccccc5)CC4)c3n2)cc1 [Compound 514, 1-{4-[1-(1-benzylpiperidin-4-yl)-4-morpholin-4-yl-1H-pyrazolo[3,4-d]pyrimidin-6-yl]phenyl}-3-(3-hydroxypropyl)urea]	80	364	0.65
COCCCNC(=O)Nc1ccc(-c2nc(N3CCOCC3)c3cnn(C4CCN(Cc5ccccc5)CC4)c3n2)cc1 [Compound 515, 1-{4-[1-(1-benzylpiperidin-4-yl)-4-morpholin-4-yl-1H-pyrazolo[3,4-d]pyrimidin-6-yl]phenyl}-3-(3-methoxypropyl)urea]	600	753	3.2
CN(C)CCCNC(=O)Nc1ccc(-c2nc(N3CCOCC3)c3cnn(C4CCN(Cc5ccccc5)CC4)c3n2)cc1 [Compound 516, 1-{4-[1-(1-benzylpiperidin-4-yl)-4-morpholin-4-yl-1H-pyrazolo[3,4-d]pyrimidin-6-yl]phenyl}-3-[3-(dimethylamino)propyl]urea]	650	158	2
O=CN1CCC(n2ncc3c(N4CCOCC4)nc(-c4ccc5[nH]ccc5c4)nc32)CC1 [Compound 518, 4-[6-(1H-indol-5-yl)-4-morpholin-4-yl-1H-pyrazolo[3,4-d]pyrimidin-1-yl]piperidine-1-carbaldehyde]	1000	2800	3
COC(=O)Nc1ccc(-c2nc(N3CCOCC3)c3cn[nH]c3n2)cc1 [Compound 525, methyl [4-(4-morpholin-4-yl-1H-pyrazolo[3,4-d]pyrimidin-6-yl)phenyl]carbamate]	3000	612	12
C=CC(=O)Nc1ccc(-c2nc(N3CCOCC3)c3cn[nH]c3n2)cc1 [Compound 526, N-[4-(4-morpholin-4-yl-1H-pyrazolo[3,4-d]pyrimidin-6-yl)phenyl]acrylamide]	3400	601	7
CN(C)CC(=O)Nc1ccc(-c2nc(N3CCOCC3)c3cn[nH]c3n2)cc1 [Compound 527, N^2,N^2-dimethyl-N-[4-(4-morpholin-4-yl-1H-pyrazolo[3,4-d]pyrimidin-6-yl)phenyl]glycinamide]	7000	2270	18
NCC(=O)Nc1ccc(-c2nc(N3CCOCC3)c3cn[nH]c3n2)cc1 [Compound 528, N-[4-(4-morpholin-4-yl-1H-pyrazolo[3,4-d]pyrimidin-6-yl)phenyl]glycinamide]	9000	128	11
CN1CCC(C(=O)Nc2ccc(-c3nc(N4CCOCC4)c4cn[nH]c4n3)cc2)CC1 [Compound 530, 1-methyl-N-[4-(4-morpholin-4-yl-1H-pyrazolo[3,4-d]pyrimidin-6-yl)phenyl]piperidine-4-carboxamide]	5300	885	22
O=C(NCC(F)(F)F)Nc1ccc(-c2nc(N3CCOCC3)c3cnn(C4CCN(Cc5ccccc5)CC4)c3n2)cc1 [Compound 535, 1-{4-[1-(1-benzylpiperidin-4-yl)-4-morpholin-4-yl-1H-pyrazolo[3,4-d]pyrimidin-6-yl]phenyl}-3-(2,2,2-trifluoroethyl)urea]	320	590	1.3
O=C(Nc1ccc(-c2nc(N3CCOCC3)c3cnn(C4CCN(Cc5ccccc5)CC4)c3n2)cc1)NN1CCCC1 [Compound 537, 1-{4-[1-(1-benzylpiperidin-4-yl)-4-morpholin-4-yl-1H-pyrazolo[3,4-d]pyrimidin-6-yl]phenyl}-3-pyrrolidin-1-ylurea]	3000	4230	10
NNC(=O)Nc1ccc(-c2nc(N3CCOCC3)c3cnn(-c4ccccc4)c3n2)cc1 [Compound 538, N-[4-(4-morpholin-4-yl-1-phenyl-1H-pyrazolo[3,4-d]pyrimidin-6-yl)phenyl]hydrazinecarboxamide]	5200	170	8
O=C(NO)Nc1ccc(-c2nc(N3CCOCC3)c3cnn(-c4ccccc4)c3n2)cc1 [Compound 539, 1-hydroxy-3-[4-(4-morpholin-4-yl-1-phenyl-1H-pyrazolo[3,4-d]pyrimidin-6-yl)phenyl]urea]	480	211	1.1
O=C(NCCF)Nc1ccc(-c2nc(N3CCOCC3)c3cnn(-c4ccccc4)c3n2)cc1 [Compound 540, 1-(2-fluoroethyl)-3-[4-(4-morpholin-4-yl-1-phenyl-1H-pyrazolo[3,4-d]pyrimidin-6-yl)phenyl]urea]	190	250	0.9
C=CCONC(=O)Nc1ccc(-c2nc(N3CCOCC3)c3cnn(-c4ccccc4)c3n2)cc1 [Compound 542, 1-(allyloxy)-3-[4-(4-morpholin-4-yl-1-phenyl-1H-pyrazolo[3,4-d]pyrimidin-6-yl)phenyl]urea]	3000	896	60
CNCCNC(=O)Nc1ccc(-c2nc(N3CCOCC3)c3cnn(C4CCN(Cc5ccccc5)CC4)c3n2)cc1 [Compound 545, 1-{4-[1-(1-benzylpiperidin-4-yl)-4-morpholin-4-yl-1H-pyrazolo[3,4-d]pyrimidin-6-yl]phenyl}-3-[2-(methylamino)ethyl]urea]	200	13	0.15
O=C(Nc1ccc(-c2nc(N3CCOCC3)c3cnn(C4CCN(C(=O)c5cccnc5)CC4)c3n2)cc1)Nc1cccnc1 [Compound 547, 1-(4-{4-morpholin-4-yl-1-[1-(pyridin-3-ylcarbonyl)piperidin-4-yl]-1H-pyrazolo[3,4-d]pyrimidin-6-yl}phenyl)-3-pyridin-3-ylurea]	200	32	0.027

Second part, led by results:

IC50 [2] [nM]	IC50 [3] [nM]	Structure (SMILES)	IC50 [1] [µM]
1950	8320	COc1cccc(C(=O)Nc2ccc(-c3nc(N4CCOCC4)c4cnn(C5CCCCO5)c4n3)cc2)c1 (stereo not drawn) [Compound 519, 3-methoxy-N-{4-[4-morpholin-4-yl-1-(tetrahydro-2H-pyran-2-yl)-1H-pyrazolo[3,4-d]pyrimidin-6-yl]phenyl}benzamide]	> 60
12000	9000	CN(C)CC(=O)Nc1ccc(-c2nc(N3CCOCC3)c3cnn(C4CCCCO4)c3n2)cc1 (stereo not drawn) [Compound 521, N2,N2-dimethyl-N-{4-[4-morpholin-4-yl-1-(tetrahydro-2H-pyran-2-yl)-1H-pyrazolo[3,4-d]pyrimidin-6-yl]phenyl}glycinamide]	40
11000	6470	CN(C)c1ccc(CC(=O)Nc2ccc(-c3nc(N4CCOCC4)c4cnn(C5CCCCO5)c4n3)cc2)cc1 (stereo not drawn) [Compound 522, 2-[4-(dimethylamino)phenyl]-N-{4-[4-morpholin-4-yl-1-(tetrahydro-2H-pyran-2-yl)-1H-pyrazolo[3,4-d]pyrimidin-6-yl]phenyl}acetamide]	> 60
7200	1170	O=C(Nc1ccc(-c2nc(N3CCOCC3)c3cn[nH]c3n2)cc1)c1cccnc1 [Compound 524, N-[4-(4-morpholin-4-yl-1H-pyrazolo[3,4-d]pyrimidin-6-yl)phenyl]nicotinamide]	60
680	273	CCONC(=O)Nc1ccc(-c2nc(N3CCOCC3)c3cnn(C4CCN(Cc5ccccc5)CC4)c3n2)cc1 [Compound 533, 1-{4-[1-(1-benzylpiperidin-4-yl)-4-morpholin-4-yl-1H-pyrazolo[3,4-d]pyrimidin-6-yl]phenyl}-3-ethoxyurea]	0.16
1800	404	CONC(=O)Nc1ccc(-c2nc(N3CCOCC3)c3cnn(-c4ccccc4)c3n2)cc1 [Compound 541, 1-methoxy-3-[4-(4-morpholin-4-yl-1-phenyl-1H-pyrazolo[3,4-d]pyrimidin-6-yl)phenyl]urea]	5
3000	178	NC(=O)Nc1ccc(-c2nc(N3CCOCC3)c3cnn(C4CCN(C(=O)c5cccnc5)CC4)c3n2)cc1 [Compound 546, 1-(4-{4-morpholin-4-yl-1-[1-(pyridin-3-ylcarbonyl)piperidin-4-yl]-1H-pyrazolo[3,4-d]pyrimidin-6-yl}phenyl)urea]	1.8
630	541	O=C(NCCF)Nc1ccc(-c2nc(N3CCOCC3)c3cnn(C4CCN(C(=O)c5cccnc5)CC4)c3n2)cc1 [Compound 548, 1-(2-fluoroethyl)-3-(4-{4-morpholin-4-yl-1-[1-(pyridin-3-ylcarbonyl)piperidin-4-yl]-1H-pyrazolo[3,4-d]pyrimidin-6-yl}phenyl)urea]	0.52
7500	220	O=C(NCCO)Nc1ccc(-c2nc(N3CCOCC3)c3cnn(C4CCN(C(=O)c5cccnc5)CC4)c3n2)cc1 [Compound 549, 1-(2-hydroxyethyl)-3-(4-{4-morpholin-4-yl-1-[1-(pyridin-3-ylcarbonyl)piperidin-4-yl]-1H-pyrazolo[3,4-d]pyrimidin-6-yl}phenyl)urea]	9
